Measurements taken from patent publication US20240317721A1, “PYRAZOLYL DERIVATIVES AS INHIBITORS OF THE KRAS MUTANT PROTEIN” (NOVARTIS AG, priority 2021, published 2024).

The compounds below were run against KRasG12C (M1-K169, biotinylated on the N-terminus) (Homo sapiens (Human), UniProt P01116, G12C) (assay: Covalent competition assay: scintillation proximity assay (SPA) quantifying covalent modification of KRASG12C). Conditions: competition with radiolabeled covalent probe (Compound B/Compound A), 2 hours incubation, 10 nM KRasG12C.
Assay type: binding
Procedure, shortened: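 Test compounds compete with a radiolabeled covalent probe for modification of N-terminally biotinylated KRasG12C(M1-K169):GDP, final 10 nM protein, 25 nM radio-ligand, 475 nM unlabelled ligand, 2 h with agitation in 20 mM Tris-HCl pH 7.5, 150 mM NaCl, 0.1 mM MgCl2, 0.01% Tween-20.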

Compared with C=CC(=O)N1CC2(CC(n3nc(N4CC[C@@H](CN5CCN(C6COC6)C6COCC65)CC4(C)C)c(-c4c(Cl)c(Cl)cc5[nH]ncc45)c3C)C2)C1 (single isomer, unassigned) [Example 281a, 1-(6-(4-(5,6-dichloro-1H-indazol-4-yl)-3-((R)-2,2-dimethyl-4-(((4aS*,7aR*)-4-(oxetan-3-yl)hexahydrofuro[3,4-b]pyrazin-1(2H)-yl)methyl)piperidin-1-yl)-5-methyl-1H-pyrazol-1-yl)-2-azaspiro[3.3]heptan-2-yl)prop-2-en-1-one], C=CC(=O)N1CC2(CC(n3nc(N4CC[C@@H](CN5CCN(C6COC6)C[C@@H]5CO)CC4(C)C)c(-c4c(Cl)c(Cl)cc5[nH]ncc45)c3C)C2)C1 (single isomer, unassigned) [Example 290a] is 2-fold higher in IC50: 1670 nM for the first, 3400 nM for the second.

C=CC(=O)N1CC2(CC(n3nc(N4CC[C@@H](CN5CCN(C6COC6)C6COCC65)CC4(C)C)c(-c4c(Cl)c(Cl)cc5[nH]ncc45)c3C)C2)C1 (single isomer, unassigned) [Example 281b, 1-(6-(4-(5,6-dichloro-1H-indazol-4-yl)-3-((R)-2,2-dimethyl-4-(((4aS*,7aR*)-4-(oxetan-3-yl)hexahydrofuro[3,4-b]pyrazin-1(2H)-yl)methyl)piperidin-1-yl)-5-methyl-1H-pyrazol-1-yl)-2-azaspiro[3.3]heptan-2-yl)prop-2-en-1-one] and C=CC(=O)N1CC2(CC(n3nc(N4CC[C@@H](CN5CCN(C6COC6)C[C@@H]5CO)CC4(C)C)c(-c4c(Cl)c(Cl)cc5[nH]ncc45)c3C)C2)C1 (single isomer, unassigned) [Example 290b] cannot be ordered by IC50: less than 5 nM for the first, less than 5 nM for the second.

C=CC(=O)N1CC2(CC(n3nc(N4CC[C@@H](CN(C5COC5)C5COC5)CC4(C)C)c(-c4c(Cl)c(Cl)cc5[nH]ncc45)c3C)C2)C1 (single isomer, unassigned) [Example 282a] and C=CC(=O)N1CC2(CC(n3nc(N4CC[C@@H](CN5CCOC[C@@H](O)C5)CC4(C)C)c(-c4c(Cl)c(Cl)cc5[nH]ncc45)c3C)C2)C1 (single isomer, unassigned) [Example 292a] are within 1.5-fold of each other in IC50: 1500 nM for the first, 1900 nM for the second.

Compared with C=CC(=O)N1CC2(CC(n3nc(N4CC[C@@H](CN(C5COC5)C5COC5)CC4(C)C)c(-c4c(Cl)c(Cl)cc5[nH]ncc45)c3C)C2)C1 (single isomer, unassigned) [Example 282b], C=CC(=O)N1CC2(CC(n3nc(N4CC[C@@H](CN5CCOC[C@@H](O)C5)CC4(C)C)c(-c4c(Cl)c(Cl)cc5[nH]ncc45)c3C)C2)C1 (single isomer, unassigned) [Example 292b] is 3.9-fold higher in IC50: 7 nM for the first, 27 nM for the second.

Compared with [2H]C1([2H])OC([2H])([2H])C([2H])([2H])N(C[C@@H]2CCN(c3nn(C4CC5(C4)CN(C(=O)C=C)C5)c(C)c3-c3c(Cl)c(Cl)cc4[nH]ncc34)C(C)(C)C2)C1([2H])[2H] (single isomer, unassigned) [Example 283a], C=CC(=O)N1CC2(CC(n3nc(N4CC[C@@H](CN5CC6(COCCN6C)C5)CC4(C)C)c(-c4c(Cl)c(Cl)cc5[nH]ncc45)c3C)C2)C1 (single isomer, unassigned) [Example 291a] is higher in IC50: 3000 nM for the first, greater than 5000 nM for the second.

[2H]C1([2H])OC([2H])([2H])C([2H])([2H])N(C[C@@H]2CCN(c3nn(C4CC5(C4)CN(C(=O)C=C)C5)c(C)c3-c3c(Cl)c(Cl)cc4[nH]ncc34)C(C)(C)C2)C1([2H])[2H] (single isomer, unassigned) [Example 283b] and C=CC(=O)N1CC2(CC(n3nc(N4CC[C@@H](CN5CC6(COCCN6C)C5)CC4(C)C)c(-c4c(Cl)c(Cl)cc5[nH]ncc45)c3C)C2)C1 (single isomer, unassigned) [Example 291b] are the same in IC50: 8 nM for the first, 8 nM for the second.

Going from C=CC(=O)N1CC2(CC(n3nc(N4CC[C@@H](CN5CC6(C5)CN(C)C(=O)O6)CC4(C)C)c(-c4c(Cl)c(Cl)cc5[nH]ncc45)c3C)C2)C1 (single isomer, unassigned) [Example 284a] to C=CC(=O)N1CC2(CC(n3nc(N4CC[C@@H](CN5CC6(C5)CN(C)C(=O)N6C)CC4(C)C)c(-c4c(Cl)c(Cl)cc5[nH]ncc45)c3C)C2)C1 (single isomer, unassigned) [Example 296a], the IC50 falls from 1600 nM to 392 nM (4.1-fold).

C=CC(=O)N1CC2(CC(n3nc(N4CC[C@@H](CN5CC6(C5)CN(C)C(=O)O6)CC4(C)C)c(-c4c(Cl)c(Cl)cc5[nH]ncc45)c3C)C2)C1 (single isomer, unassigned) [Example 284b] and C=CC(=O)N1CC2(CC(n3nc(N4CC[C@@H](CN5CC6(C5)CN(C)C(=O)N6C)CC4(C)C)c(-c4c(Cl)c(Cl)cc5[nH]ncc45)c3C)C2)C1 (single isomer, unassigned) [Example 296b] are within 1.5-fold of each other in IC50: 8 nM for the first, 6 nM for the second.

First: C=CC(=O)N1CC2(CC(n3nc(N4CC[C@@H](CN5CC6(CCCN6C(C)=O)C5)CC4(C)C)c(-c4c(Cl)c(Cl)cc5[nH]ncc45)c3C)C2)C1 (single isomer, unassigned) [Example 285a]
Second: C=CC(=O)N1CC2(CC(n3nc(N4CC[C@@H](CN5CC6(CCN(S(C)(=O)=O)C6)C5)CC4(C)C)c(-c4c(Cl)c(Cl)cc5[nH]ncc45)c3C)C2)C1 (single isomer, unassigned) [Example 297a]
The IC50 of the first is lower: 4600 nM for the first, greater than 5000 nM for the second.

C=CC(=O)N1CC2(CC(n3nc(N4CC[C@@H](CN5CC6(CCCN6C(C)=O)C5)CC4(C)C)c(-c4c(Cl)c(Cl)cc5[nH]ncc45)c3C)C2)C1 (single isomer, unassigned) [Example 285b] and C=CC(=O)N1CC2(CC(n3nc(N4CC[C@@H](CN5CC6(CCN(S(C)(=O)=O)C6)C5)CC4(C)C)c(-c4c(Cl)c(Cl)cc5[nH]ncc45)c3C)C2)C1 (single isomer, unassigned) [Example 297b] are within 1.5-fold of each other in IC50: 7 nM for the first, 9 nM for the second.

Going from C=CC(=O)N1CC2(CC(n3nc(N4CC[C@@H](CN5C[C@H](O)C[C@H]5COC)CC4(C)C)c(-c4c(Cl)c(Cl)cc5[nH]ncc45)c3C)C2)C1 (single isomer, unassigned) [Example 286a] to C=CC(=O)N1CC2(CC(n3nc(N4CC[C@@H](CN5CC6(O)CC5C6)CC4(C)C)c(-c4c(Cl)c(Cl)cc5[nH]ncc45)c3C)C2)C1 (single isomer, unassigned) [Example 293a], the IC50 rises from 1100 nM to 4000 nM (3.6-fold). The first is the more potent here.

C=CC(=O)N1CC2(CC(n3nc(N4CC[C@@H](CN5C[C@H](O)C[C@H]5COC)CC4(C)C)c(-c4c(Cl)c(Cl)cc5[nH]ncc45)c3C)C2)C1 (single isomer, unassigned) [Example 286b] and C=CC(=O)N1CC2(CC(n3nc(N4CC[C@@H](CN5CC6(O)CC5C6)CC4(C)C)c(-c4c(Cl)c(Cl)cc5[nH]ncc45)c3C)C2)C1 (single isomer, unassigned) [Example 293b] are within 1.5-fold of each other in IC50: 7 nM for the first, 10 nM for the second.

Going from C=CC(=O)N1CC2(CC(n3nc(N4CC[C@@H](CN5CCN6C[C@@H](O)C[C@@H]6C5)CC4(C)C)c(-c4c(Cl)c(Cl)cc5[nH]ncc45)c3C)C2)C1 (single isomer, unassigned) [Example 287a] to C=CC(=O)N1CC2(CC(n3nc(N4CC[C@@H](CN5CCN6CCOC[C@H]6C5)CC4(C)C)c(-c4c(Cl)c(Cl)cc5[nH]ncc45)c3C)C2)C1 (single isomer, unassigned) [Example 288a], the IC50 rises from 307 nM to 4900 nM (16-fold).

C=CC(=O)N1CC2(CC(n3nc(N4CC[C@@H](CN5CCN6C[C@@H](O)C[C@@H]6C5)CC4(C)C)c(-c4c(Cl)c(Cl)cc5[nH]ncc45)c3C)C2)C1 (single isomer, unassigned) [Example 287b] and C=CC(=O)N1CC2(CC(n3nc(N4CC[C@@H](CN5CCN6CCOC[C@H]6C5)CC4(C)C)c(-c4c(Cl)c(Cl)cc5[nH]ncc45)c3C)C2)C1 (single isomer, unassigned) [Example 288b] are within 1.5-fold of each other in IC50: 9 nM for the first, 10 nM for the second.

First: C=CC(=O)N1CC2(CC(n3nc(N4CC[C@@H](CN5CCN(C(=O)NC)CC5)CC4(C)C)c(-c4c(Cl)c(Cl)cc5[nH]ncc45)c3C)C2)C1 (single isomer, unassigned) [Example 289a]
Second: C=CC(=O)N1CC2(CC(n3nc(N4CC[C@@H](CN5CCN(S(C)(=O)=O)CC5)CC4(C)C)c(-c4c(Cl)c(Cl)cc5[nH]ncc45)c3C)C2)C1 (single isomer, unassigned) [Example 298a]
The IC50 of the first is 3.3-fold higher: 3300 nM for the first, 1000 nM for the second. The second is the more potent here.

First: C=CC(=O)N1CC2(CC(n3nc(N4CC[C@@H](CN5CCN(C(=O)NC)CC5)CC4(C)C)c(-c4c(Cl)c(Cl)cc5[nH]ncc45)c3C)C2)C1 (single isomer, unassigned) [Example 289b]
Second: C=CC(=O)N1CC2(CC(n3nc(N4CC[C@@H](CN5CCN(S(C)(=O)=O)CC5)CC4(C)C)c(-c4c(Cl)c(Cl)cc5[nH]ncc45)c3C)C2)C1 (single isomer, unassigned) [Example 298b]
The IC50 of the first is 2.7-fold lower: 10 nM for the first, 27 nM for the second. The first is the more potent here.

First: C=CC(=O)N1CC2(CC(n3nc(N4CC[C@@H](CN5C[C@@H]6CS(=O)(=O)C[C@@H]6C5)CC4(C)C)c(-c4c(Cl)c(Cl)cc5[nH]ncc45)c3C)C2)C1 (single isomer, unassigned) [Example 294a]
Second: C=CC(=O)N1CC2(CC(n3nc(N4CC[C@@H](CN5C[C@@H]6CN(C(C)=O)C[C@@H]6C5)CC4(C)C)c(-c4c(Cl)c(Cl)cc5[nH]ncc45)c3C)C2)C1 (single isomer, unassigned) [Example 295a]
The IC50 of the first is 2.4-fold higher: 4700 nM for the first, 2000 nM for the second. The second is the more potent here.

Compared with C=CC(=O)N1CC2(CC(n3nc(N4CC[C@@H](CN5C[C@@H]6CS(=O)(=O)C[C@@H]6C5)CC4(C)C)c(-c4c(Cl)c(Cl)cc5[nH]ncc45)c3C)C2)C1 (single isomer, unassigned) [Example 294b], C=CC(=O)N1CC2(CC(n3nc(N4CC[C@@H](CN5C[C@@H]6CN(C(C)=O)C[C@@H]6C5)CC4(C)C)c(-c4c(Cl)c(Cl)cc5[nH]ncc45)c3C)C2)C1 (single isomer, unassigned) [Example 295b] is 1.7-fold lower in IC50: 10 nM for the first, 6 nM for the second. The second is the more potent here.

C=CC(=O)N1CC2(CC(n3nc(N4CC[C@@H](CN5CCOC6(COC6)C5)CC4(C)C)c(-c4c(Cl)c(C)cc5[nH]ncc45)c3C)C2)C1 (single isomer, unassigned) [Example 299a] was tested, and the IC50 was 793 nM.
